Where “and” joins values, the source holds several entries; their conditions need not be identical. Equal entries are not always repeated. Toxic doses and inconclusive results are not listed. Rule for the calls: active = survival T/C of 150% or more; inactive = T/C below 125% in these data.
Tested on: CD2F1 mice, L1210 leukemia ip, survival T/C
Assay: NCI In Vivo Anticancer Drug Screen. Data for tumor model L1210 Leukemia (intraperitoneal) in CD2F1 (CDF1) mice
Conditions: higher = longer survival
Procedure, shortened: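 Implant tumor; dose compound or vehicle; measure endpoint in both groups; report treated divided by control.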

[1] = endpoint: mean survival time, dose: 100.0 mg/kg/injection, schedule: Q01DX009 (ip), vehicle: saline with Tween-80
[2] = endpoint: mean survival time, dose: 200.0 mg/kg/injection, schedule: Q01DX009 (ip), vehicle: saline with Tween-80
[3] = endpoint: mean survival time, dose: 100.0 mg/kg/injection, schedule: Q01DX001 (ip), vehicle: saline
[4] = endpoint: mean survival time, dose: 50.0 mg/kg/injection, schedule: Q01DX009 (ip), vehicle: Klucel (hydroxypropylcellulose) (HPC)
[5] = endpoint: mean survival time, dose: 100.0 mg/kg/injection, schedule: Q01DX009 (ip), vehicle: Klucel (hydroxypropylcellulose) (HPC)
[6] = endpoint: mean survival time, dose: 200.0 mg/kg/injection, schedule: Q01DX009 (ip), vehicle: Klucel (hydroxypropylcellulose) (HPC)
[7] = endpoint: mean survival time, dose: 400.0 mg/kg/injection, schedule: Q01DX009 (ip), vehicle: Klucel (hydroxypropylcellulose) (HPC)
[8] = endpoint: mean survival time, dose: 25.0 mg/kg/injection, schedule: Q01DX009 (ip), vehicle: saline with Tween-80
[9] = endpoint: mean survival time, dose: 50.0 mg/kg/injection, schedule: Q01DX009 (ip), vehicle: saline with Tween-80
[10] = endpoint: mean survival time, dose: 100.0 mg/kg/injection, schedule: Q04DX003 (ip), vehicle: saline with Tween-80
[11] = endpoint: mean survival time, dose: 150.0 mg/kg/injection, schedule: Q01DX001 (ip), vehicle: saline
[12] = endpoint: mean survival time, dose: 50.0 mg/kg/injection, schedule: Q04DX003 (ip), vehicle: saline with Tween-80
[13] = endpoint: mean survival time, dose: 200.0 mg/kg/injection, schedule: Q04DX003 (ip), vehicle: saline with Tween-80

Measured: T/C

[Cl][Pt+2][Cl].[NH-]C(C(=O)O)c1ccccc1.[NH-]C(C(=O)O)c1ccccc1 (configuration not stated)
inactive: endpoint: median survival time, dose: 3.12 mg/kg/injection, schedule: Q04DX003 (ip), vehicle: saline 103 % of control | endpoint: median survival time, dose: 6.25 mg/kg/injection, schedule: Q04DX003 (ip), vehicle: saline 103 % of control | endpoint: median survival time, dose: 12.5 mg/kg/injection, schedule: Q04DX003 (ip), vehicle: saline 100 % of control | endpoint: median survival time, dose: 25.0 mg/kg/injection, schedule: Q04DX003 (ip), vehicle: saline 107 % of control | endpoint: median survival time, dose: 50.0 mg/kg/injection, schedule: Q04DX003 (ip), vehicle: saline 101 % of control | endpoint: median survival time, dose: 100.0 mg/kg/injection, schedule: Q04DX003 (ip), vehicle: saline 123 % of control

C=C(C)C(=O)OC1C/C(CO)=C\C(O)C/C(C)=C/C2OC(=O)C(=C)C21 (configuration not stated)
inactive: endpoint: mean survival time, dose: 1.25 mg/kg/injection, schedule: Q01DX009 (ip), vehicle: saline + alcohol 103 % of control and 104 % of control | endpoint: mean survival time, dose: 2.5 mg/kg/injection, schedule: Q01DX009 (ip), vehicle: saline + alcohol 116 % of control and 101 % of control | endpoint: mean survival time, dose: 3.75 mg/kg/injection, schedule: Q01DX009 (ip), vehicle: saline + alcohol 114 % of control | endpoint: mean survival time, dose: 5.0 mg/kg/injection, schedule: Q01DX009 (ip), vehicle: saline + alcohol 113 % of control and 123 % of control | endpoint: mean survival time, dose: 7.5 mg/kg/injection, schedule: Q01DX009 (ip), vehicle: saline + alcohol 114 % of control | endpoint: mean survival time, dose: 10.0 mg/kg/injection, schedule: Q01DX009 (ip), vehicle: saline + alcohol 110 % of control | endpoint: mean survival time, dose: 15.0 mg/kg/injection, schedule: Q01DX009 (ip), vehicle: saline + alcohol 106 % of control | endpoint: mean survival time, dose: 20.0 mg/kg/injection, schedule: Q01DX009 (ip), vehicle: saline + alcohol 122 % of control | endpoint: mean survival time, dose: 30.0 mg/kg/injection, schedule: Q01DX009 (ip), vehicle: saline + alcohol 120 % of control | endpoint: mean survival time, dose: 40.0 mg/kg/injection, schedule: Q01DX009 (ip), vehicle: saline + alcohol 97 % of control

NCCc1nc(N)nc(N)c1-c1ccc(Cl)cc1
inactive: endpoint: mean survival time, dose: 100.0 mg/kg/injection, schedule: Q01DX001 (ip), vehicle: saline with Tween-80 103 % of control | endpoint: mean survival time, dose: 200.0 mg/kg/injection, schedule: Q01DX001 (ip), vehicle: saline with Tween-80 97 % of control

CC1CC(C)(O)CC(C(O)CC2CC(=O)NC(=O)C2)C1=O (configuration not stated)
inactive: endpoint: mean survival time, dose: 0.02 mg/kg/injection, schedule: Q01DX009 (ip), vehicle: saline 96 % of control and 102 % of control | endpoint: mean survival time, dose: 0.04 mg/kg/injection, schedule: Q01DX009 (ip), vehicle: saline 105 % of control and 107 % of control | endpoint: mean survival time, dose: 0.08 mg/kg/injection, schedule: Q01DX009 (ip), vehicle: saline 114 % of control | endpoint: mean survival time, dose: 0.16 mg/kg/injection, schedule: Q01DX009 (ip), vehicle: saline 117 % of control and 122 % of control

COc1ccc(C(O)c2ccccn2)cc1 (configuration not stated)
inactive: [1] 103 % of control | [2] 97 % of control | endpoint: mean survival time, dose: 400.0 mg/kg/injection, schedule: Q01DX009 (ip), vehicle: saline with Tween-80 90 % of control

CCCC[N-]CC(O)C[NH-].O=C(O)CC(=O)O.[Pt+2] (configuration not stated)
inactive: endpoint: median survival time, dose: 10.0 mg/kg/injection, schedule: Q04DX003 (ip), vehicle: water 105 % of control | endpoint: median survival time, dose: 20.0 mg/kg/injection, schedule: Q04DX003 (ip), vehicle: water 103 % of control | endpoint: median survival time, dose: 40.0 mg/kg/injection, schedule: Q04DX003 (ip), vehicle: water 105 % of control | endpoint: median survival time, dose: 50.5 mg/kg/injection, schedule: Q04DX003 (ip), vehicle: water 103 % of control | endpoint: median survival time, dose: 80.0 mg/kg/injection, schedule: Q04DX003 (ip), vehicle: water 97 % of control | endpoint: median survival time, dose: 101.0 mg/kg/injection, schedule: Q04DX003 (ip), vehicle: water 103 % of control | endpoint: median survival time, dose: 202.0 mg/kg/injection, schedule: Q04DX003 (ip), vehicle: water 107 % of control

Cc1nc(C(Cl)C2OC(CO)C(O)C2O)cc(=O)[nH]1 (configuration not stated)
inactive: endpoint: median survival time, dose: 18.25 mg/kg/injection, schedule: Q01DX005 (ip), vehicle: saline 118 % of control | endpoint: median survival time, dose: 36.5 mg/kg/injection, schedule: Q01DX005 (ip), vehicle: saline 100 % of control | endpoint: median survival time, dose: 73.0 mg/kg/injection, schedule: Q01DX005 (ip), vehicle: saline 102 % of control | endpoint: median survival time, dose: 146.0 mg/kg/injection, schedule: Q01DX005 (ip), vehicle: saline 100 % of control

Cc1ccc(NC(=O)c2ccc(C(=O)Nc3ccc(C)c(Cl)c3)cc2)cc1Cl
inactive: [3] 89 % of control | endpoint: mean survival time, dose: 200.0 mg/kg/injection, schedule: Q01DX001 (ip), vehicle: saline 98 % of control | endpoint: mean survival time, dose: 400.0 mg/kg/injection, schedule: Q01DX001 (ip), vehicle: saline 89 % of control

c1ccc2[nH]c(CCCCCCCCc3nc4ccccc4[nH]3)nc2c1
inactive: [1] 102 % of control | [2] 104 % of control

CC1(C)CC2(OC2c2ccccc2)C(=O)c2ccccc21 (configuration not stated)
inactive: endpoint: mean survival time, dose: 12.5 mg/kg/injection, schedule: Q01DX009 (ip), vehicle: Klucel (hydroxypropylcellulose) (HPC) 96 % of control | endpoint: mean survival time, dose: 25.0 mg/kg/injection, schedule: Q01DX009 (ip), vehicle: Klucel (hydroxypropylcellulose) (HPC) 92 % of control | [4] 87 % of control | [5] 96 % of control | [6] 94 % of control | [7] 94 % of control

COc1ccc2[nH]cc(CN(C)C)c2c1
inactive: [8] 100 % of control | endpoint: mean survival time, dose: 33.0 mg/kg/injection, schedule: Q01DX009 (ip), vehicle: saline with Tween-80 101 % of control | [9] 106 % of control | [1] 105 % of control | [10] 88 % of control

O=[N+]([O-])c1ccc(/C=N/O)o1
inactive: endpoint: mean survival time, dose: 12.5 mg/kg/injection, schedule: Q01DX001 (ip), vehicle: saline 93 % of control and 101 % of control | endpoint: mean survival time, dose: 25.0 mg/kg/injection, schedule: Q01DX001 (ip), vehicle: saline 102 % of control | endpoint: mean survival time, dose: 50.0 mg/kg/injection, schedule: Q01DX001 (ip), vehicle: saline 97 % of control and 102 % of control | [3] 100 % of control and 101 % of control and 102 % of control | [11] 100 % of control

O=[N+]([O-])c1cc(C(F)(F)F)ccc1F
inactive: endpoint: mean survival time, dose: 25.0 mg/kg/injection, schedule: Q04DX003 (ip), vehicle: saline with Tween-80 110 % of control | [12] 98 % of control | [10] 105 % of control

O=C1C=C(Nc2ccc([N+](=O)[O-])cc2)c2ccccc2C1=O
inactive: endpoint: mean survival time, dose: 75.0 mg/kg/injection, schedule: Q01DX001 (ip), vehicle: saline 95 % of control | [11] 91 % of control

O=C(NCCBr)Nc1ccccc1
inactive: endpoint: mean survival time, dose: 12.5 mg/kg/injection, schedule: Q04DX002 (ip), vehicle: Klucel (hydroxypropylcellulose) (HPC) 92 % of control | endpoint: mean survival time, dose: 25.0 mg/kg/injection, schedule: Q04DX002 (ip), vehicle: Klucel (hydroxypropylcellulose) (HPC) 92 % of control | endpoint: mean survival time, dose: 50.0 mg/kg/injection, schedule: Q04DX002 (ip), vehicle: Klucel (hydroxypropylcellulose) (HPC) 96 % of control

CC(C)(C)CC(C)(C)c1ccc(OCCOc2ccccc2NC(=O)CC(=O)c2cccc([N+](=O)[O-])c2)cc1
inactive: [5] 98 % of control | [10] 97 % of control | [6] 93 % of control | [13] 101 % of control | [7] 90 % of control | endpoint: mean survival time, dose: 400.0 mg/kg/injection, schedule: Q04DX003 (ip), vehicle: saline with Tween-80 92 % of control

CC(C)(C)CC(C)(C)c1ccc(OCCOc2ccc(NS(=O)(=O)c3ccc(N)c([N+](=O)[O-])c3)cc2)cc1
inactive: [4] 101 % of control | [5] 101 % of control | [6] 98 % of control

c1ccc(CCN2CCC(CCc3c[nH]c4ccccc34)CC2)cc1
inactive: [9] 107 % of control | [12] 110 % of control | [10] 104 % of control | [13] 92 % of control

CCCCC/C=C/C/C=C\CCCCCCCC1=C(O)C(=O)C(OC)=C(OC)C1=O
inactive: endpoint: mean survival time, dose: 6.25 mg/kg/injection, schedule: Q01DX009 (ip), vehicle: saline with Tween-80 120 % of control | endpoint: mean survival time, dose: 12.5 mg/kg/injection, schedule: Q01DX009 (ip), vehicle: saline with Tween-80 106 % of control | [8] 98 % of control | [9] 102 % of control | [1] 102 % of control | [2] 106 % of control

OC(Cc1nc2ccccc2[nH]1)c1nc2ccccc2[nH]1 (configuration not stated)
inactive: [4] 104 % of control | [5] 97 % of control | [6] 101 % of control
